Results as given in patent US12291504B2 (University of Pittsburgh—Of the Commonwealth System of …, priority 2018, dated 2025).
Read-outs that look alike come from different tables or passages of the source.

How the values were obtained:
SULT1A3 [1] = target: T1, SULT1A3 (Homo sapiens, UniProt P0DMM9); experiment: SULT1A3 inhibition studies, 1-HP initial-rate fluorescence assay; type: biochemical; parameters: Wild-type and mutant SULT1A3 coding regions were inserted into a pGEX-6P expression vector; N-His/GST/MBP triple-tag (N, cleaved yes); made in house; host or cells: E. coli BL21(DE3); inhibition: dose or concentration left out as unconfirmed; conditions: for inhibition: read-out: SULT1A3 Enzyme Inhibition at Saturation/%
T1 sequence (P0DMM9 whole entry): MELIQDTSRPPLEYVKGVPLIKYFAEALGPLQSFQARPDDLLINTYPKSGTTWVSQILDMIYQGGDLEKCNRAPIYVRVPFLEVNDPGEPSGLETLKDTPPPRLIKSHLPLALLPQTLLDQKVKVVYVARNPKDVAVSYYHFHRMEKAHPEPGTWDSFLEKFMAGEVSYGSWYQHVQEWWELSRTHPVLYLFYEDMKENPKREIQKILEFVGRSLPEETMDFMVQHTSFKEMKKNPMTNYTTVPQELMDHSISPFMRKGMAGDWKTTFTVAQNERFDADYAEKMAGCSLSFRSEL
Protocol: The initial rates of SULT catalyzed 1-HP sulfonation are plotted as a function of inhibitor concentration, and are normalized relative to [inhibitor]=0. Enzyme activity was monitored by the sulfonation dependent change in 1-HP fluorescence (λex=325 nm, λem=370 nm). Less than 5% of the concentration-limiting substrate converted at the reaction endpoint was consumed during initial-rate measurements. Each point is the average of three independent determinations. Conditions: SULT (20 nM, active sites), PAPS (0.50 mM, 17×Km), 1-HP (5.0 μM, 61×Km), KPO4 (50 mM), pH 7.5, 25±2° C.
(§1) Initial-Rate Studies. Initial-rate parameters for the labeled or mutant SULT1A3 constructs were determined using a previously described 1-HP assay (25). Briefly, reactions were initiated by addition of PAPS (0.50 mM, 17×Km) to a solution containing enzyme (20 nM, active sites), 1-HP (2.0 μM, ˜24×Km), and KPO4 (50 mM), pH 7.5, 25±2° C. Reactions were monitored via fluorescence change associated with the conversion of 1-HP to 1-HP-S (λex=325 nm, λem=370 nm). Keq for the 1-HP sulfonation reaction is −250. Given the reaction conditions outlined above, ≥99% of 1-HP is converted to 1-HP-S, and ˜0.4% of PAPS is converted to PAP at equilibrium. […] Reaction progress curves were analyzed to obtain initial-rate parameters as described previously (26,27).
(§2) Inhibition studies. Inhibition parameters were determined under conditions identical to those described above (see, Initial-Rate Studies) except that [1-HP] was increased to 5.0 μM (˜61×Km) and inhibitor concentration was varied between 0.20-20×Ki. Ki was obtained using a least-squares fit to the following partial inhibition equation (25,28): v=kcat·(Ki+(1/kcat inh)·[I])/(Ki+[I]), where kcat inh is enzyme turnover at saturating substrates and allosteric inhibitor.
as §1, with “(47).” for “(25).”, “˜250.” for “−250.”, “(48,49).” for “(26,27).”
as §2, with “(47,50): V/Vax=(Ki+α·[I])/(Ki+[I]),” for “(25,28): v=kcat·(Ki+(1/kcat inh)·[I])/(Ki+[I]),”, “α” for “kcat inh”, “is percentage of” for “is”, “turnover remaining” for “turnover”

SULT1A1 = SULT1A1 (Homo sapiens, UniProt P50225); experiment: SULT1A1 inhibition, 1-HP initial-rate assay; type: biochemical; conditions: ND = inhibition was not detected at 30 μM compound, parentheses one standard error; for inhibition: read-out: SULT1A1 Enzyme Inhibition at Saturation/%
Chain of SULT1A1 (P50225 whole entry): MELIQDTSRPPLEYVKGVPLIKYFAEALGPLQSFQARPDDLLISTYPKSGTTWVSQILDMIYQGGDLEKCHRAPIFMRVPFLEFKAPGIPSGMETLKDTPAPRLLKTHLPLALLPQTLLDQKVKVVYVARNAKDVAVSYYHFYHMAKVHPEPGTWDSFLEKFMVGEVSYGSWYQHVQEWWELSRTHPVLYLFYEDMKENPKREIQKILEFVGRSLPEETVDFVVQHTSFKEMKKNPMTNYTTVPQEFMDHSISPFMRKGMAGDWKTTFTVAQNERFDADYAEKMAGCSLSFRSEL
Protocol: as §2
as §2, with “(47,50): V/Vax=(Ki+α·[I])/(Ki+[I]),” for “(25,28): v=kcat·(Ki+(1/kcat inh)·[I])/(Ki+[I]),”, “α” for “kcat inh”, “is percentage of” for “is”, “turnover remaining” for “turnover”

Mouse (1D1) = Mouse (1D1) (Mus musculus, UniProt Q3UZZ6); experiment: Inhibition of SULT1A3 homologues in different species: Mouse; type: biochemical
Chain of Mouse (1D1) (Q3UZZ6 whole entry): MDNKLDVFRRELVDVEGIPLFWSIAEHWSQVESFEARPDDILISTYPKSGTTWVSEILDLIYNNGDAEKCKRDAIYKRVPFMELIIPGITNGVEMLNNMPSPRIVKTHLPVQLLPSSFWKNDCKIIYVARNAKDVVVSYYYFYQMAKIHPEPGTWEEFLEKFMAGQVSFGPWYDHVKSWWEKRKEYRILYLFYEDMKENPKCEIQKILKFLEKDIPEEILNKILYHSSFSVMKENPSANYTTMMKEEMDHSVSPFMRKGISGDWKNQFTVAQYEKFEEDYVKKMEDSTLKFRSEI
Protocol: (§3) Compounds 12, 23 and 25 were also tested for Inhibition of SULT1A3 in different species.
(§4) Inhibition of SULT1A3 Homologues in Different Species. SULT1A3 is only expressed in humans and higher primates. SULT1D1 is the isoform expressed in dogs and rodents that sulfonates neurotransmitters and is most similar to SULT1A3. Three synthesized allosteres (12, 23, and 25) were tested against both 1A3 and 1D1 from different species in order to explore testing in animal models. […] Mice have been engineered such that their SULT1A1/2 enzymes have been knocked out and replaced with the human versions of those isoforms.

Green Monkey (1A3) = Green Monkey (1A3) (Chlorocebus sabaeus, UniProt Z9LO20H8W3); experiment: Inhibition of SULT1A3 homologues in different species: Green Monkey; type: biochemical
Chain of Green Monkey (1A3) (Z9LO20H8W3 1-295): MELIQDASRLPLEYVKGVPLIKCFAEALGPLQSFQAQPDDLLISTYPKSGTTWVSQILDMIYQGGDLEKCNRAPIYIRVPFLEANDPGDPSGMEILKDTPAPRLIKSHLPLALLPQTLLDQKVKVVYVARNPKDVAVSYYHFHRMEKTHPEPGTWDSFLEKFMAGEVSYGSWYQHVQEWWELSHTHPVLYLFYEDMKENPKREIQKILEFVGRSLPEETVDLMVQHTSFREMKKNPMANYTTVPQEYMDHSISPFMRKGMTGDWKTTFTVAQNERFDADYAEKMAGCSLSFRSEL
Protocol: as §3, §4

Rhesus Macaque (1A3) = Rhesus Macaque (1A3) (Macaca mulatta, UniProt A0A5F7ZQH3); experiment: Inhibition of SULT1A3 homologues in different species: Rhesus Macaque; type: biochemical
Chain of Rhesus Macaque (1A3) (A0A5F7ZQH3 1-295): as the sequence (Z9LO20H8W3 1-295) above, with A7T, V15M, C23Y, R230K, Y247F, A278E counted along it
Protocol: as §3, §4

Dog (1D1) = Dog (1D1) (Canis lupus familiaris, UniProt A0A8I3RXJ1); experiment: Inhibition of SULT1A3 homologues in different species: Dog; type: biochemical
Chain of Dog (1D1) (A0A8I3RXJ1 entry or part of it): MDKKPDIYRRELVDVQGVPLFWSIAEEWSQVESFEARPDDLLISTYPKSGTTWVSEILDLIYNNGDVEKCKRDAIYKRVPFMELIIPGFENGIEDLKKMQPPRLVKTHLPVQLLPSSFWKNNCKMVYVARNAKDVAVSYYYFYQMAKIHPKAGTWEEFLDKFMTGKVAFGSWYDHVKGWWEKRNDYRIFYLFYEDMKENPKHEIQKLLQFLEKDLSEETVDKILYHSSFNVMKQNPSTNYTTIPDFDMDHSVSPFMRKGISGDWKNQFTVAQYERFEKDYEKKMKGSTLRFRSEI
Protocol: as §4, with “Compounds 12, 23 and 25 were also tested for Inhibition of SULT1A3 in different species. Inhibition” for “Inhibition”

Rat (1D1) = target: T2, Rat (1D1) (Rattus norvegicus, UniProt G3V9R3); experiment: Inhibition of SULT1A3 homologues in different species: Rat; type: biochemical
T2 sequence (G3V9R3 1-295): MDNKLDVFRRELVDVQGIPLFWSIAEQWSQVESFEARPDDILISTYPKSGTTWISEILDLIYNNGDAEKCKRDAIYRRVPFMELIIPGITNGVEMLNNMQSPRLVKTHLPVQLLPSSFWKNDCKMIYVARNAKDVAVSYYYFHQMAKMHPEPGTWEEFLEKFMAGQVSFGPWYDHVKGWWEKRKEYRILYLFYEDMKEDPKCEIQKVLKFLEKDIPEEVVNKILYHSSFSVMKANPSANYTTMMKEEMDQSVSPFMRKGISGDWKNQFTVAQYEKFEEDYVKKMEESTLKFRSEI
Protocol: as §3, §4

SULT1A3 [2] = target: T1, SULT1A3; experiment: Pre-steady state binding of PAP to SULT1A3 (stopped-flow fluorescence); parameters: Wild-type and mutant SULT1A3 coding regions were inserted into a pGEX-6P expression vector; N-His/GST/MBP triple-tag (N, cleaved yes); made in house; host or cells: E. coli BL21(DE3)
Protocol: The effect of CMP8 on PAP binding to SULT1A3 was monitored using a stopped-flow spectrofluorimeter (λex=290 nm, λem≥330 nm (cutoff filter)). […] Each kobs value was determined in triplicate and the averaged values are shown. kon and koff are given, respectively, by the slopes and intercepts obtained from linear least-squares fitting of the kobs vs [PAP] plots.
(§5) Pre-Steady State Binding Studies. The pre-steady state binding of PAP to SULT1A3 was monitored via ligand-induced enzyme fluorescence changes in SULT1A3 using an Applied Photophysics SX20 stopped-flow spectrofluorimeter (32). […] All reactions were pseudo first order in [PAP]. The observed rate constant (kobs) at a given [PAP] was taken as the average of three independent progress curves each obtained from a single-exponential fit of 6-9 averaged, binding progress curves. The rate constants, kon and koff, were obtained from the slopes and intercepts predicted by linear least-squares analysis of four-points kobs vs [PAP] plots.
Given that CMP8 interacts with the SULT1A3 cap, it was reasoned it might inhibit by stabilizing the cap-closed form(s) of the enzyme. To test this hypothesis, the microscopic rate constants for nucleotide binding and release were determined in the presence and absence of saturating CMP8. The binding reactions were monitored via intrinsic fluorescence changes associated with ligand binding (30-32) (see, Methods). The resulting kobs vs [PAP] plots are presented in FIG. 4. kon and koff are obtained, respectively, from the slopes and intercepts of the plots (30,31), see Table C. […] Thus, CMP8 does indeed slow nucleotide release by increasing Kiso and thus stabilizing the closed form of the cap.
as §5, with “(29).” for “(32).”

[3] = ND = inhibition was not detected at 30 μM compound, parentheses one standard error, read-out: SULT1A3 Ki/μM
[4] = saturating CMP8 (1.7 μM, 50×Kd)

| Compound | Ki (SULT1A3 [1]; [3]) [µM] | inhibition (SULT1A3 [1]; parentheses one standard error) [%] | Ki (SULT1A1) [µM] | inhibition (SULT1A1) [%] | also measured |
| --- | --- | --- | --- | --- | --- |
| COCc1ccc2nc(CC(C)C)ccc2c1 [Compound 3, 2-Isobutyl-6-(methoxymethyl)quinolone] | 6.1 | 10 | 5.7 | 10 | – |
| Cc1nc2ccc(CO)cc2cc1CC(C)C [Compound 4] | 7.5 | – | 7.7 | 20 | – |
| CCCn1cc(-c2ccc3ncccc3c2)nn1 [Compound 5, 6-(1-Propyl-1H-1,2,3-triazol-4-yl)quinoline] | 3.1 | 33 | 4.7 | 53 | – |
| COC(=O)c1ccc2nc3c(cc2c1)C(=O)CC(C)C3 (centres unmarked) [Compound 6, Methyl 6-methyl-8-oxo-5,6,7,8-tetrahydroacridine-2-carboxylate] | 0.66 | 35 | – | – | – |
| CCCCNC(=O)c1ccc2nc(CC(C)C)ccc2c1 [Compound 7, N-Butyl-2-isobutylquinoline-6-carboxamide] | 1.3 | 51 | 5.1 | 67 | – |
| CCOC(=O)CCc1ccc2cc(CCC(N)=O)ccc2n1 [Compound 9, Ethyl 3-(6-(3-amino-3-oxopropyl)quinolin-2-yl)propanoate] | 0.33 | 63 | – | – | – |
| O=C(O)/C=C/c1ccc2ncccc2c1 [Compound 10, (E)-3-(quinolin-6-yl)acrylic acid] | 4.1 | 72 | 22 | 30 | – |
| CC(C)Cc1ccc2cc(C(N)=O)ccc2n1 [Compound 11, 2-Isobutylquinoline-6-carboxamide] | 0.86 | 78 | – | – | – |
| Nc1ncnc2c1ncn2[C@@H]1O[C@H](COP(=O)(O)O)[C@@H](OP(=O)(O)O)[C@H]1O [PAP] | – | – | – | – | koff (s^−1), (−) CMP8 (SULT1A3 [2]; nucleotide binding to SULT1A3 without CMP8): 2.7 (0.1) s^−1; kon (μM^−1s^−1), (−) CMP8 (SULT1A3 [2]; nucleotide binding to SULT1A3 without CMP8, parentheses standard error): 6.6 (0.2)^a μM^−1s^−1; koff (s^−1), (+) CMP8 (SULT1A3 [2]; [4]): 1.1 (0.1) s^−1; kon (μM^−1s^−1), (+) CMP8 (SULT1A3 [2]; [4]): 6.3 (0.3) μM^−1s^−1 |

The next lines start with results.

| Ki (SULT1A3 [1]; [3]) [µM] | inhibition (SULT1A3 [1]; parentheses one standard error) [%] | Ki (SULT1A1) [µM] | inhibition (SULT1A1) [%] | Compound | also measured |
| --- | --- | --- | --- | --- | --- |
| 0.19 | 65 | 6.2 | 48 | CC(C)Cc1ccc2cc(/C=C/C(N)=O)ccc2n1 [Compound 13, (E)-3-(2-Isobutylquinolin-6-yl)acrylamide] | – |
| – | – | 2.5 | 40 | CC(C)(C)Cc1ccc2cc(CO)ccc2n1 [Compound 18] | – |
| 2.6 | 16 | 12.1 | 17 | CCCn1cc(-c2ccc3ccc(O)cc3c2)nn1 [Compound 20] | – |
| 3.1 | 29.4 | – | – | CC(C)Cc1ccc2cc(/C=C/C(=O)O)cnc2n1 [Compound 24, (E)-3-(7-Isobutylnaphthyridin-3-yl)acrylic acid] | – |
| 0.017 | 90 | – | – | CC(C)Cc1ccc2cc(CCC(N)=O)cnc2n1 [Compound 25] | Mouse (1D1) % inh (Mouse (1D1)): 91 (2) %; Ki (Mouse (1D1); parentheses one standard error): 0.032 µM; Green Monkey (1A3) % inh (Green Monkey (1A3)): 72 (5) %; Ki (Green Monkey (1A3); parentheses one standard error): 0.087 µM; Rhesus Macaque (1A3) % inh (Rhesus Macaque (1A3)): 95 (2) %; Ki (Rhesus Macaque (1A3); parentheses one standard error): 0.025 µM; Human (1A3) % inh (SULT1A3 [1]; parentheses one standard error): 90 (3) %; Ki (SULT1A3 [1]; standard error in neighbouring cell, read-out: Human (1A3) Ki): 0.017 µM; Dog (1D1) % inh (Dog (1D1)): 73 (4) %; Ki (Dog (1D1); standard error in neighbouring cell): 0.052 µM; Rat (1D1) % inh (Rat (1D1)): 21 (3) %; Ki (Rat (1D1); parentheses one standard error): 1.1 µM |
| 0.11 | 75 | – | – | CC1CC(=O)c2cc3cc(C(N)=O)ccc3nc2C1 (centres unmarked) [Compound 27, 6-Methyl-8-oxo-5,6,7,8-tetrahydroacridine-2-carboxamide] | – |
| 0.085 | 52 | – | – | CC1Cc2nc3ccc(C(N)=O)cc3cc2C(O)C1 (centres unmarked) [Compound 28, 8-Hydroxy-6-methyl-5,6,7,8-tetrahydroacridine-2-carboxamide] | – |
